# Experimental data from patent US6803466B1, “HIV/FIV protease inhibitors having a small P3 residue” (The Scripps Research Institute, priority 1997, dated 2004).
# Assays:
# [1] = system: HIV WEAU-1.6 in MT-2 cells; assay: microbe, parasite or virus in culture; type: cell-based
# Method: The results from tissue culture assays against SIV (FIG. 14) and HIV (FIG. 14) were equally encouraging. […] The effectiveness of compound 1200 against HIV was measured by determining the percentage of viable cells remaining in culture over time in the presence and absence of drug (FIG. 14). In the control, HIV caused formation of multinucleated syncytia and 100% cell death by 9 days post infection. However, the cells cultured with 1 μg/ml (1.1 μM) or 5 μg/ml (5.5 μM) of inhibitor 1200 remained 100% viable after 1 month, identical to results obtained in the absence of virus infection. To test for virus in these cultures, supernatants were removed and added to 1×10^5 uninfected MT-2 cells after a 1:5 dilution with fresh CM. […] In contrast, when 2×10^5 infected MT-2 cells that had been treated with compound 1200 for two weeks were removed and replated in fresh medium with or without compound 1200 only MT-2 cells cultured in the absence of compound 1200 were dead within 4 days (data not shown). […] Cultures are being carried continuously in the presence of compound 12 to look for resistance development. Tests are also underway to determine the level of efficacy of the compound against a defined panel of drug-resistant HIVs.
# WEAU-1.6, a kind gift of George Shaw, University of Alabama (^18), a CXCR4 utilizing isolate, was used for all studies. 2×10^5 MT-2 cells in 0.1 ml were infected for 4 hr, at 37° C., using WEAU-1.6 at 25 TCID50. Before establishing cultures for inhibitor assessment infected cells were washed 3 times with complete medium (CM), which was RPMI-1640 supplemented with 10% FBS, […], 200 mM L-glutamine, and […] of gentamicin sulfate, to remove any unbound virus. For inhibitor assessment cultures were established in duplicate or triplicate using 5×10^4 infected cells and 1×10^5 uninfected cells in a total volume of 1.5 mls in Costar 6 well-plates. Once cultures were established they were split 1:4 every 3 days, and given fresh CM. Compound 12 (from a 10 mg/ml stock in DMSO) was added at […] at initiation of the culture and after each split. For testiing of the antiviral efficacy of compound 1200 in MT-2 were assessed every day using a Olympus (model) inverted microscope equipped with phase contrast objectives. When MT-2 cells are infected with WEAU-1.6 they form syncytia and die with in 24 hours, events easily discernible visually. A total of 200 cells were counted in each well, and when syncytia were noted, cells were removed and tested for viability by using trypan-blue. Results are expressed as the average of viable cells.
# [2] = system: FIV-PPR in feline T-cells (104-C1); assay: Ex vivo inhibitor analysis against FIV, pelletable reverse transcriptase in culture supernatant; type: cell-based, feline immunodeficiency virus; conditions: for FIV replication, pelletable reverse transcriptase: feline T-cells, 1 month
# Method: For FIV, the assays were performed in FIV-infected feline T-cells which were cultured in the presence of compound 1200 at different concentrations over the course of 1 month. Each data in FIG. 14 represents the amount of pelletable FIV reverse transcriptase in the culture supernatant. […] After one month, the drug-treated cultures were split and replated with and without compound 1200.
# The lymphocytic cell line 104-C1 (provided by C. Grant) was used as the target for infection. Cells were cultured in RPMI-1640 media supplemented with 10% FBS, 200 μM L-Glutamine, 1×MEM-Vitamins, 100 μM Sodium Pyruvate, 1×Non-Essential Amino Acids, 5.5×10−5M b-ME, 50 μg/ml Gentamicin, 50 U/ml human recombinant Interleukin-2 (provided by Hoffmann-LaRoche) and 7.5 μg/ml Concanavalin-A. For inhibitor assessment, 5×10^6 cells were infected with FIV-PPR (4×105 RT units) in 1 mL culture for 2 hr at 37° C. […] The cells were then washed with Hanks-buffered saline solution (HBSS) and resuspended in 10 ml of complete medium. The compound 1200 (10 mg/mL in DMSO) was then added to final concentrations of 0.1, 0.5, 1, and 5 μg/ml in duplicate. The cells were then incubated at 37° C. The culture supernatants were monitored for the presence of pelletable reverse transcriptase activity at weekly intervals, as follows. Cell-free culture supernatants (4 ml) were centrifuged at 60K for 30 min and the pellets were resuspended in 100 μl of lysis buffer containing 40 mM TrisHCl (pH 8.1), 360 mM NaCl, 20 mM DTT and 0.2% NP40. Twenty five μl of lysate was added to 25 μl of a mixture containing polyrA-pdT (Pharmacia, Piscataway, N.J.), MgCl2, and 3H-labeled deoxythymidine 5′-triphosphate (DuPont NEN, Boston, Mass.), and incubated for 1 hr at 37° C. The mixture was spotted on DE81 paper, air-dried, fixed in 0.1 M sodium pyrophosphate, washed three times in 0.3 M ammonium formate, and an additional time in 95% ethanol. The paper was then dried and counted on a scintillation counter.
# Cells were split 1:5 after the second, third, and fourth time points and fresh inhibitor was added at the appropriate concentration at each of these intervals. The data were expressed as values +/−standard deviation of the mean.
# MT-2 cells = assay: Toxicity to host cells of the HIV assay; type: cell-based
# Method: The results from tissue culture assays against SIV (FIG. 14) and HIV (FIG. 14) were equally encouraging. […] The effectiveness of compound 1200 against HIV was measured by determining the percentage of viable cells remaining in culture over time in the presence and absence of drug (FIG. 14). In the control, HIV caused formation of multinucleated syncytia and 100% cell death by 9 days post infection. However, the cells cultured with 1 μg/ml (1.1 μM) or 5 μg/ml (5.5 μM) of inhibitor 1200 remained 100% viable after 1 month, identical to results obtained in the absence of virus infection. To test for virus in these cultures, supernatants were removed and added to 1×10^5 uninfected MT-2 cells after a 1:5 dilution with fresh CM. […]
# WEAU-1.6, a kind gift of George Shaw, University of Alabama (^18), a CXCR4 utilizing isolate, was used for all studies. […] For testiing of the antiviral efficacy of compound 1200 in MT-2 were assessed every day using a Olympus (model) inverted microscope equipped with phase contrast objectives. […] A total of 200 cells were counted in each well, and when syncytia were noted, cells were removed and tested for viability by using trypan-blue. Results are expressed as the average of viable cells.
# [3] = Human immunodeficiency virus 1, MT2, read-out: viable cells remaining in culture
structure (smiles),measurement,setting,value
CC(C)[C@H](NC(=O)[C@H](C)NC(=O)OCc1ccccc1)C(=O)N[C@@H](Cc1ccccc1)[C@@H](O)[C@H](O)[C@H](Cc1ccccc1)NC(=O)[C@@H](NC(=O)[C@H](C)NC(=O)OCc1ccccc1)C(C)C [Compound 1b],inhibition of HIV infection in tissue culture (in words),[1],strongly inhibits
same,"free virus in supernatants, transfer to uninfected MT-2 cells","[1]; 1:5 dilution, after 3 weeks",remained uninfected
same,viability at 1.1 µM,[1]; [3],100%
same,viability at 5.5 µM,[1]; [3],100%
same,prevention of FIV infection in tissue culture (in words),[2],strongly inhibits
same,"FIV replication, pelletable reverse transcriptase",[2]; 1.0 μg/ml (1.1 μM),most effective
same,virus after drug-treated cultures were split and replated with and without drug,"[2]; after one month of treatment, two weeks in culture",No virus was detected
same,resistance development against the drug,[2]; eight weeks of continuous culture,No sign of resistance development
same,"FIV replication, pelletable reverse transcriptase",[2],markedly inhibit
same,toxicity to host cells,MT-2 cells,minimal toxicity
